Measurements from ChEMBL document CHEMBL2074336, “Reversal of P-glycoprotein-associated multidrug resistance by ivermectin” (Biochem Pharmacol, 1997).

Experiments:
Format in all cases: functional, cell membranes, Plasma membrane
Conditions in all cases: cem-vlb
[1] = target: T1, ATP-dependent translocase ABCB1 (Homo sapiens, UniProt P08183); assay: TP_TRANSPORTER: inhibition of IAAP photoaffinity labelling (IAAP: 0.02 uM, IVM: 100-fold molar excess) in plasma membranes from CEM/VLB1.0 cells; set-up: scale not given: the % may be the effect or the level left
[2] = target: T1, ATP-dependent translocase ABCB1; assay: TP_TRANSPORTER: inhibition of Vinblastine binding (Vinblastine: 0.2 uM, IVM: 300-fold molar excess) in plasma membranes from CEM/VLB1.0 cells; set-up: scale not given: the % may be the effect or the level left
[3] = target: T1, ATP-dependent translocase ABCB1; assay: TP_TRANSPORTER: inhibition of IAAP photoaffinity labelling (IAAP: 0.02 uM, PSC-833: 100-fold molar excess) in plasma membranes from CEM/VLB1.0 cells
[4] = target: T1, ATP-dependent translocase ABCB1; assay: TP_TRANSPORTER: inhibition of Ivermectin binding (IVM: 0.2 uM, Vinblastine: 300-fold molar excess) in plasma membranes from CEM/VLB1.0 cells; set-up: scale not given: the % may be the effect or the level left

T1 sequence (P08183 whole entry): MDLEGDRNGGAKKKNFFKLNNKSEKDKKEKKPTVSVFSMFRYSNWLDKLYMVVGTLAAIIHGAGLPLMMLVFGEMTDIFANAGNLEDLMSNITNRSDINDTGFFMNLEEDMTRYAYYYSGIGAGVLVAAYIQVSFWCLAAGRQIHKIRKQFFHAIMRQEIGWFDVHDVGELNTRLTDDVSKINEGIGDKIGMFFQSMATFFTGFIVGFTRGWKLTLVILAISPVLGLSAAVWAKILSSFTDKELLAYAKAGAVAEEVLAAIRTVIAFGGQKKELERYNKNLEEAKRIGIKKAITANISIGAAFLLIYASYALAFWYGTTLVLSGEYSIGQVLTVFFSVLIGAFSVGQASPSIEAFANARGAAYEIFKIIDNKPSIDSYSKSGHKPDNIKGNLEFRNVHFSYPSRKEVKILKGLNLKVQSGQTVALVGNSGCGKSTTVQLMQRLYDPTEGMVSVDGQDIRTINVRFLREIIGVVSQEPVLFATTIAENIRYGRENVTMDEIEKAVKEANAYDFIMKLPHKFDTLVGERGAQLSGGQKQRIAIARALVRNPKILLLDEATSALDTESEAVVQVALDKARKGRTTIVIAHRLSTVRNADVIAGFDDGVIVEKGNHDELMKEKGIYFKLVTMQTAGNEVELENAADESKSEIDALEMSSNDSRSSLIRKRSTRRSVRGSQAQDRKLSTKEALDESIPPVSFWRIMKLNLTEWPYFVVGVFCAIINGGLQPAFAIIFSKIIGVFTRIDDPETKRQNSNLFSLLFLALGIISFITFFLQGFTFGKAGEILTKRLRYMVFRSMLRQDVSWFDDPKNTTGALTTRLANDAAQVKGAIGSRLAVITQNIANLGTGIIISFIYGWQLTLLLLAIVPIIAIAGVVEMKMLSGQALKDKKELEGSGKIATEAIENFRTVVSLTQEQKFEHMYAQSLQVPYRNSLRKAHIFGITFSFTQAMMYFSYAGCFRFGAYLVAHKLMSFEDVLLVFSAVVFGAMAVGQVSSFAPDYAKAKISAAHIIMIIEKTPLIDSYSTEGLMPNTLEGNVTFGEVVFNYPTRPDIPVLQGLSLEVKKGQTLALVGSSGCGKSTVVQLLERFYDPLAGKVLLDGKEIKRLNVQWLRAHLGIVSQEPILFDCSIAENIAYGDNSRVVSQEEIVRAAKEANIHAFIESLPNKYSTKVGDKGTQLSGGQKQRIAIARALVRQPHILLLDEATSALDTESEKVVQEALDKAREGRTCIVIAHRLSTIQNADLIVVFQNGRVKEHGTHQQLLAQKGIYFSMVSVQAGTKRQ

Work on IVERMECTIN yielded an Activity [1] of 0% and an Activity [2] of 0%.
With `C/C=C/C[C@@H](C)C(=O)[C@H]1C(=O)N[C@@H](C(C)C)C(=O)N(C)CC(=O)N(C)[C@@H](CC(C)C)C(=O)N[C@@H](C(C)C)C(=O)N(C)[C@@H](CC(C)C)C(=O)N[C@@H](C)C(=O)N[C@H](C)C(=O)N(C)[C@@H](CC(C)C)C(=O)N(C)[C@@H](CC(C)C)C(=O)N(C)[C@@H](C(C)C)C(=O)N1C` [VALSPODAR] the Activity [3] was “inhibitor [+]”.
`CC[C@]1(O)C[C@@H]2CN(CCc3c([nH]c4ccccc34)[C@@](C(=O)OC)(c3cc4c(cc3OC)N(C)[C@H]3[C@@](O)(C(=O)OC)[C@H](OC(C)=O)[C@]5(CC)C=CCN6CC[C@]43[C@@H]65)C2)C1` [VINBLASTINE] was tested, and the Activity [4] was 44%.
